PMC4144712 (Biochemistry, 2014)

What was measured:
CXCR4 = CXCR4 (Homo sapiens, UniProt P61073); test: CXCR4-FITC-DV1 competitive binding assay; details: CHO-CXCR4 cells; 800 nM FITC-DV1
CCR5 = test: Inhibition of FITC-DV1 binding in CCR5-expressing cell line; details: data not shown
CCR3 = test: Inhibition of FITC-DV1 binding in CCR3-expressing cell line; details: data not shown

Sequence of CXCR4 (P61073 whole entry): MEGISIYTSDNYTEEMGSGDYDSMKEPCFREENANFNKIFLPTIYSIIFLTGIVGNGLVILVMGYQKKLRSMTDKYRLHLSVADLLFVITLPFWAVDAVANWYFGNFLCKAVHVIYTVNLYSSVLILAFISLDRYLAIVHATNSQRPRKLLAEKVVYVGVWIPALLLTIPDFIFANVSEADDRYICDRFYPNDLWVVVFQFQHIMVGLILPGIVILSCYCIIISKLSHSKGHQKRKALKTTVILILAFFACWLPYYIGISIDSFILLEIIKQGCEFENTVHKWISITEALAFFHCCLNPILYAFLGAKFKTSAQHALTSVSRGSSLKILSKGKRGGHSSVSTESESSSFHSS

| Compound | inhibition of the binding of FITC-DV1 to CXCR4 (in words) (CXCR4) | inhibition of the binding of FITC-DV1 in CCR5-expressing cell line (CCR5) | inhibition of the binding of FITC-DV1 in CCR3-expressing cell line (CCR3) |
| --- | --- | --- | --- |
| c1cc(CN2CCCNCCNCCCNCC2)ccc1CN1CCCNCCNCCCNCC1 [AMD3100] | inhibited the binding of FITC-DV1 to CXCR4 |  |  |
| RANTES: a common ligand of CCR5 and CCR3 |  | Neither ubiquitin, a ligand of CXCR4, nor RANTES (a common ligand of CCR5 and CCR3) inhibited the binding of FITC-DV1 | Neither ubiquitin, a ligand of CXCR4, nor RANTES (a common ligand of CCR5 and CCR3) inhibited the binding of FITC-DV1 |
